Source: ChEMBL document CHEMBL1201862, “PubChem BioAssay data set” (2004)
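Values below derive from 48-hour exposures of cells grown in 96-well plates, with endpoints linearly interpolated between the two concentrations bracketing the appropriate inhibition level. GI50 is the concentration that inhibits growth by half.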 The source made the active and inactive calls. No stated cut-off is given here; in the data, active = GI50 up to about 1.1 µM and inactive = higher.

Assays:
Assay in all cases: NCI tumour cell line growth inhibition, 48 h
U-251 = system: U-251
SNB-75 = system: SNB-75
K562 = system: K562
SF-268 = system: SF-268
SNB-19 = system: SNB-19
UACC-62 = system: UACC-62
SF-295 = system: SF-295
NCI/ADR-RES = system: NCI/ADR-RES
MDA-MB-435 = system: MDA-MB-435
NCI-H23 = system: NCI-H23
DU-145 = system: DU-145
SK-MEL-5 = system: SK-MEL-5
Malme-3M = system: Malme-3M
NCI-H460 = system: NCI-H460
ACHN = system: ACHN
UO-31 = system: UO-31
HT-29 = system: HT-29
SF-539 = system: SF-539
SN12C = system: SN12C
HL-60 = system: HL-60

SMILES | GI50 (U-251) | GI50 (SNB-75) | GI50 (K562) | GI50 (SF-268) | GI50 (SNB-19) | GI50 (UACC-62) | GI50 (SF-295) | GI50 (NCI/ADR-RES) | GI50 (MDA-MB-435) | GI50 (NCI-H23) | GI50 (DU-145) | GI50 (SK-MEL-5) | GI50 (Malme-3M) | GI50 (NCI-H460) | GI50 (ACHN) | GI50 (UO-31) | GI50 (HT-29) | GI50 (SF-539) | GI50 (SN12C) | GI50 (HL-60)
Cc1cc(-c2[nH]c(C(=O)O)cc2I)on1 | 40.9 µM (inactive) | 24.8 µM (inactive) | > 100 µM (inactive) | 68.7 µM (inactive) | 31 µM (inactive) | 53.8 µM (inactive) | 33.7 µM (inactive) | > 100 µM (inactive) | > 100 µM (inactive) | 51.2 µM (inactive) | > 100 µM (inactive) | > 100 µM (inactive) | > 100 µM (inactive) | > 100 µM (inactive) | 91.4 µM (inactive) | 40.5 µM (inactive) | > 100 µM (inactive) |  |  | 
COC1CC(OC2OC(CO)C(O)C(O)C2O)/C(=C\C#N)C(O)C1OC (stereo not given) | > 100 µM (inactive) |  |  | > 100 µM (inactive) | > 100 µM (inactive) | > 100 µM (inactive) | > 100 µM (inactive) | > 100 µM (inactive) | > 100 µM (inactive) | > 100 µM (inactive) | > 100 µM (inactive) | > 100 µM (inactive) | > 100 µM (inactive) | > 100 µM (inactive) | > 100 µM (inactive) | > 100 µM (inactive) | > 100 µM (inactive) | > 100 µM (inactive) | > 100 µM (inactive) | > 100 µM (inactive)
CCc1c(CNC2=NCCN2)c(CC)c(CNC2=NCCN2)c(CC)c1CNC1=NCCN1 | > 100 µM (inactive) | > 100 µM (inactive) | > 100 µM (inactive) | > 100 µM (inactive) | > 100 µM (inactive) | > 100 µM (inactive) | > 100 µM (inactive) | > 100 µM (inactive) | > 100 µM (inactive) | > 100 µM (inactive) | > 100 µM (inactive) | > 100 µM (inactive) | > 100 µM (inactive) | > 100 µM (inactive) | > 100 µM (inactive) | > 100 µM (inactive) | > 100 µM (inactive) | > 100 µM (inactive) | > 100 µM (inactive) | 
C/C=C\C(CC(=O)NCCC1CN(C(=O)OCc2ccccc2)c2ccccc21)CC(=O)OC (stereo not given) | > 100 µM (inactive) | > 100 µM (inactive) | > 100 µM (inactive) | > 100 µM (inactive) | > 100 µM (inactive) | > 100 µM (inactive) | > 100 µM (inactive) | > 100 µM (inactive) | > 100 µM (inactive) | > 100 µM (inactive) | > 100 µM (inactive) | > 100 µM (inactive) | > 100 µM (inactive) | 86.5 µM (inactive) | > 100 µM (inactive) | > 100 µM (inactive) | > 100 µM (inactive) |  |  | 
CC#CC#C/C=C1/O[C@]2(CCC(OC(C)=O)CO2)[C@@H]2O[C@H]12 (stereo not given in full) | 17.9 µM (inactive) | 80.5 µM (inactive) | 29.4 µM (inactive) | 27.8 µM (inactive) | 27.7 µM (inactive) | 16.6 µM (inactive) | 35.4 µM (inactive) | 21.7 µM (inactive) | 22.1 µM (inactive) | 19.4 µM (inactive) | 30.5 µM (inactive) |  | 14.7 µM (inactive) | 18.1 µM (inactive) | 24.9 µM (inactive) | 20.1 µM (inactive) | 28.9 µM (inactive) |  | 20.6 µM (inactive) | 18.4 µM (inactive)
CCOc1cn(C2CC(O)C(CO)O2)c(=O)[nH]c1=O (stereo not given) | > 100 µM (inactive) | > 100 µM (inactive) |  | > 100 µM (inactive) | > 100 µM (inactive) | > 100 µM (inactive) |  | > 100 µM (inactive) | > 100 µM (inactive) | > 100 µM (inactive) | > 100 µM (inactive) | > 100 µM (inactive) | > 100 µM (inactive) | > 100 µM (inactive) | > 100 µM (inactive) | > 100 µM (inactive) | > 100 µM (inactive) |  | > 100 µM (inactive) | > 100 µM (inactive)
Cc1ccc(C(=O)OC(C)C)cc1/N=N/N(C)C | > 71.4 µM (inactive) |  | > 100 µM (inactive) | > 68.7 µM (inactive) | > 69.8 µM (inactive) | > 96.2 µM (inactive) | 58.6 µM (inactive) | 98.4 µM (inactive) | > 100 µM (inactive) | 45.3 µM (inactive) | > 100 µM (inactive) | > 64.9 µM (inactive) | > 100 µM (inactive) | > 100 µM (inactive) | > 88.5 µM (inactive) | 70 µM (inactive) | > 100 µM (inactive) | > 100 µM (inactive) | 97.5 µM (inactive) | 39.8 µM (inactive)
COc1ccc(C#Cn2nnc3ccccc32)cc1 | > 100 µM (inactive) |  | > 100 µM (inactive) | 91.2 µM (inactive) | > 100 µM (inactive) | > 100 µM (inactive) | > 100 µM (inactive) | > 100 µM (inactive) | > 100 µM (inactive) | > 100 µM (inactive) | 41 µM (inactive) | > 100 µM (inactive) | > 100 µM (inactive) | > 100 µM (inactive) | > 100 µM (inactive) | 2.15 µM (inactive) | > 100 µM (inactive) | > 100 µM (inactive) | > 100 µM (inactive) | 21.6 µM (inactive)
N=C1C(O)C2(I)c3ccccc3N3C(=N)C(O)C4c5ccccc5N1C4C32 (stereo not given) | 22.1 µM (inactive) | > 100 µM (inactive) | 26.4 µM (inactive) | > 100 µM (inactive) | 63.7 µM (inactive) | > 100 µM (inactive) | 47.8 µM (inactive) | 61.2 µM (inactive) | 20.4 µM (inactive) | 35.6 µM (inactive) | > 100 µM (inactive) | 30.8 µM (inactive) | 21.1 µM (inactive) | 37.7 µM (inactive) | 39.4 µM (inactive) | > 100 µM (inactive) | 95.1 µM (inactive) |  | 54.3 µM (inactive) | 20.2 µM (inactive)
CCCCNc1c(CN)cnc2cc(Cl)ccc12 | 16.4 µM (inactive) | 19.8 µM (inactive) | 13.9 µM (inactive) | 23.6 µM (inactive) | 22.9 µM (inactive) | 15.6 µM (inactive) | 14 µM (inactive) | 16.2 µM (inactive) | 15.6 µM (inactive) | 19.3 µM (inactive) | 28.1 µM (inactive) | 15.1 µM (inactive) | 19.2 µM (inactive) | 13 µM (inactive) | 22.6 µM (inactive) |  | 16.9 µM (inactive) |  | 18.4 µM (inactive) | 0.394 µM (active)
CC1C2CCC3C(O)C2(CC(O)C2(O)C1CC(O)C2(C)C)CC3(C)O (stereo not given) | > 100 µM (inactive) |  | > 100 µM (inactive) | > 100 µM (inactive) | > 100 µM (inactive) | > 100 µM (inactive) | > 100 µM (inactive) | > 100 µM (inactive) | > 100 µM (inactive) | > 100 µM (inactive) | > 100 µM (inactive) | > 100 µM (inactive) | > 100 µM (inactive) | > 100 µM (inactive) | > 100 µM (inactive) | > 100 µM (inactive) | > 100 µM (inactive) | > 100 µM (inactive) | > 100 µM (inactive) | > 100 µM (inactive)
